Results reported in publication PMC3817140, “The Role of the Methyltransferase Domain of Bifunctional Restriction Enzyme RM.BpuSI in Cleavage Activity” (PLoS ONE, 2013).

Biological target: T1, RM.BpuSI (Bacillus pumilus, UniProt G1K3S1)
T1 construct: full-length (REase, helical connector, MTase domain, TRD); recombinant in E. coli ER3081, no tag told; treated with substrate DNA to remove SAM
T1 sequence (G1K3S1 1-878): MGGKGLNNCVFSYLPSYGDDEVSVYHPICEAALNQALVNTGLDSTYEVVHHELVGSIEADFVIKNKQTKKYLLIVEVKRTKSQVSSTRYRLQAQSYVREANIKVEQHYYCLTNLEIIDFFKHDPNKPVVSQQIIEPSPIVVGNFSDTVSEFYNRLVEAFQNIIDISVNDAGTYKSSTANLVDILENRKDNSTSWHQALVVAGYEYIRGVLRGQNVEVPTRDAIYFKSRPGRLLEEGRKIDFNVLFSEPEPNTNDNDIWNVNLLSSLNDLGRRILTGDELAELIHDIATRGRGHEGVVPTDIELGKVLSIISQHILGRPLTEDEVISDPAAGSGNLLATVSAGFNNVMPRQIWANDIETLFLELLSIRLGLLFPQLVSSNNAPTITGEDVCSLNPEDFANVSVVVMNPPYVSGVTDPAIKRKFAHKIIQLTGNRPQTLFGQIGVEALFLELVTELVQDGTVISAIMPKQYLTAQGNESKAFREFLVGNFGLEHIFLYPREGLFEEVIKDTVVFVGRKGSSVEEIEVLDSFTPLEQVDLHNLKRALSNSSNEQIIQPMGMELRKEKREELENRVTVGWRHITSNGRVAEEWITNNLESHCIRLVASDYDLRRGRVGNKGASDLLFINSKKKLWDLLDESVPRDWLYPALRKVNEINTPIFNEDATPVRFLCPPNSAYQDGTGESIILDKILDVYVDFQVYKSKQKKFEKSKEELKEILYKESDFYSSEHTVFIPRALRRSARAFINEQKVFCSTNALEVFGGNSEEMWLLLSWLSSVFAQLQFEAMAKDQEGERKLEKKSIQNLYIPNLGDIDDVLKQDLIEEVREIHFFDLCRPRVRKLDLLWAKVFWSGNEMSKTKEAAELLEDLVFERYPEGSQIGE
Test: ANS fluorescence titration
Format: binding

| Kd [µM] | Compound |
| --- | --- |
| 76.4 ± 18.2 | C[S+](CC[C@H](N)C(=O)O)C[C@H]1O[C@@H](n2cnc3c(N)ncnc32)[C@H](O)[C@@H]1O (some centres unmarked) [SAM] |
| 71.1 ± 14.2 | Nc1ncnc2c1ncn2[C@@H]1O[C@H](C[C@@H](N)CC[C@H](N)C(=O)O)[C@@H](O)[C@H]1O [sinefungin] |
